The molecules below were run against Transient receptor potential cation channel subfamily A member 1 (Homo sapiens, UniProt O75762) (assay: Inhibition of cinnamaldehyde-activated full length human TRPA1 channel expressed in 293T-Rex cells monitored at 5 sec interval by manual patch clamp electrophysiological method).
Sequence of Transient receptor potential cation channel subfamily A member 1 (O75762 whole entry): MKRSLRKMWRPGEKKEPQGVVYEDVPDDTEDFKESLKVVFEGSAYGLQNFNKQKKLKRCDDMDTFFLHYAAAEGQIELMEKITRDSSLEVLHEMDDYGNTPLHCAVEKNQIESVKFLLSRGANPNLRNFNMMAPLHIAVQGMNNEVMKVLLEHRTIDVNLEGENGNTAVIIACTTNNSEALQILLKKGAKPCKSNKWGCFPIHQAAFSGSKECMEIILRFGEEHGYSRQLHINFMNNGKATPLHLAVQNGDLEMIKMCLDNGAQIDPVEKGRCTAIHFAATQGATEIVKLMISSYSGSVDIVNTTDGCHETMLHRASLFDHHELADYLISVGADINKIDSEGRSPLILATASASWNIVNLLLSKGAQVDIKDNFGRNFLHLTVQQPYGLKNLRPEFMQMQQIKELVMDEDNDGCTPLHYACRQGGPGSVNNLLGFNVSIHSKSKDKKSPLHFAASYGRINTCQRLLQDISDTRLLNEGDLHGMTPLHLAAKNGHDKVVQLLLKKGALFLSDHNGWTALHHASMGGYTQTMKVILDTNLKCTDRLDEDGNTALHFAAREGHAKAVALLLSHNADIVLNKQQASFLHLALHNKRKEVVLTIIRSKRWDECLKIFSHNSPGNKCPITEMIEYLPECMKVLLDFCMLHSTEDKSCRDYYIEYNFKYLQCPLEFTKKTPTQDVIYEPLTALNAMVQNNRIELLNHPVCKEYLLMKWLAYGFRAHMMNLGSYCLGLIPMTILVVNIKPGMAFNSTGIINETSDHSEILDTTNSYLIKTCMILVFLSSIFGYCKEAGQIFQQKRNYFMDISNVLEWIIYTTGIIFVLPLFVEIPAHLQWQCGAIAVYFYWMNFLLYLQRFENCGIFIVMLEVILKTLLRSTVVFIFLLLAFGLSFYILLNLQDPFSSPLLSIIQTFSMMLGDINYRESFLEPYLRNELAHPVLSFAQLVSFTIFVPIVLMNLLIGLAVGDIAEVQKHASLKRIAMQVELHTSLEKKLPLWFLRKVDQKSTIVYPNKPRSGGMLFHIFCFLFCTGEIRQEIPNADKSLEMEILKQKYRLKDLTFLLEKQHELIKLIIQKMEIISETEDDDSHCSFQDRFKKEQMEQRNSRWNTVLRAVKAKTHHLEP
Type: cell-based
`O=C(NCC(Cc1ccc(F)cc1)N1CCC(O)(C(F)(F)F)CC1)C1(c2ccc(Cl)cc2)CC1` (stereo not drawn) was tested, and the IC50 was 2 nM. Molecule `O=C(NCC(Cc1ccccc1)N1CCC(O)(C(F)(F)F)CC1)C1(c2ccc(Cl)cc2)CCCC1` (stereo not drawn) has an IC50 of 1 nM. Molecule `O=C(NCC(Cc1ccccc1)N1CCC(O)(C(F)(F)F)CC1)C1(c2ccc(Cl)cc2)CC1` (stereo not drawn) has an IC50 of 14 nM. `CC(C)(C(=O)NCC(Cc1ccccc1)N1CCC(O)(C(F)(F)F)CC1)c1ccccc1` (stereo not drawn) gave an IC50 of 43 nM. `N#Cc1ccc(CC(CNC(=O)C2(c3ccc(Cl)cc3)CCCC2)N2CCC(O)(C(F)(F)F)CC2)cc1` (stereo not drawn) gave an IC50 of 63 nM. Work on `O=C(NCC(Cc1ccccc1)N1CCC(C(F)(F)F)CC1)C1(c2ccc(Cl)cc2)CCCC1` (stereo not drawn) yielded an IC50 of 7 nM. `O=C(NCC(Cc1ccccc1)N1CCC(O)(C(F)(F)F)CC1)C1(c2ccc(F)cc2)CCCCC1` (stereo not drawn) showed an IC50 of 4 nM. `O=C(NCC(Cc1ccc(Br)cc1)N1CCC(O)(C(F)(F)F)CC1)C1(c2ccc(Cl)cc2)CCCC1` (stereo not drawn) showed an IC50 of 12 nM.
